From patent EP1094711B1, “METHODS FOR ERADICATION OF NANOBACTERIA” (Nanobac Oy, priority 1998, dated 2000)
Counter-ions that a name gives are not always drawn.

How the values were obtained:
serum nanobacteria = assay: Antibiotic sensitivity test of serum nanobacteria with cell culture antibiotics; type: cell-based; conditions: 100 µg/ml, one month, medium containing 10% fetal bovine serum
Method: Nanobacteria were cultured with 10% fetal bovine serum in DMEM medium (serum nanobacteria) for one month at 37°C in an atmosphere of 5% CO2 - 95% air. The cultures were harvested by centrifugation. For the autoclaving, UV, microwave, heating and drying treatments, the harvested nanobacteria were suspended in phosphate buffered saline (pH 7.4; PBS). After treatments, subculturing of the nanobacteria was made in 10% gamma irradiated fetal bovine serum in DMEM medium. The growth of serum nanobacteria was followed by light microscopy and absorbance measurement with a spectrophotometer at 650 nm.
The 1× concentrations are those recommended for cell culture. […]

nanobacteria [1] = assay: Antibiotic sensitivity test by Minimal Inhibition Concentration (MIC), 96-well plates, absorbance at 650 nm; type: cell-based; conditions: for MIC 50: 50% inhibition; for MIC 50 / MIC 90: DMEM with 10% gamma-irradiated FBS; for antinanobacterial effect in the in vitro test (in words): in vitro MIC test
Method: Antibiotic sensitivity tests were carried out by measuring Minimal Inhibition Concentration (MIC), a common practice in clinical microbiology.
The tests were performed in 96-well plates. DMEM (commercial cell culture medium) containing 10% gamma-irradiated fetal bovine serum (FBS)(dose about 3 Mrads; this treatment inactivates nanobacteria in the serum so that the basic medium is sterile) was used as the basic culture medium. These components are commercially available, e.g., from Gibco. The antibiotic stock solutions were sterile filtered through 0.2 micrometer filters. The stock solutions were then serially diluted (into the basal culture medium) to provide a final starting concentration of 0.5 mg/ml and 1:2 dilutions therefrom, unless otherwise specified. For each antibiotic three parallel tests were performed using all the antibiotic dilutions and, additionally, positive and negative control experiments. […] 100 µl of dilutions of the nanobacteria inoculum were added to all wells except the negative controls. The plates were incubated at mammalian cell culture conditions (37° Celsius, 5% carbon dioxide, 95% humid air). The absorbance values at 650 nm were recorded by using an ELISA reader at the start, and at 4, 8, 12, 14 days. […] Calculations were based on absorbance curves where absorbance was plotted against concentration of the antibiotic.

nanobacteria [2] = conditions: Kajander et al. 1997; cited from earlier work
nanobacteria [3] = assay: Antibiotic sensitivity test by Minimal Inhibition Concentration (MIC), 96-well plates, absorbance at 650 nm; type: cell-based; conditions: culture medium, 37° Celsius
nanobacteria [4] = assay: Treatment of human patients infected with nanobacteria; conditions: person with chronic fatigue syndrome; 500 mg 4 times per day for one month; after one month therapy
nanobacteria [5] = assay: Nanobacterial growth and biofilm formation on stents with metal ions in the culture medium; type: cell-based; conditions: salts added to the culture medium
From the text: Nanobacteria also absorb some heavy metals. Nanobacteria can be stained well with silver or copper compounds. […] Silver and copper parts or platings on surfaces, such as catheters or stents, can provide an antinanobacterial effect by preventing nanobacterial biofilm formation. In in vitro tests nanobacteria avidly formed biofilm on two different commercial stents made of a plastic type of material. This biofilm formation was prevented by the addition of silver or copper salts to the culture medium.

[6] = 90% inhibition, 12 day time point

Gentamycin
morphology of nanobacteria in SEM (serum nanobacteria): changes in the morphology | MIC 50 (nanobacteria [1]; 12 day time point): 60 µg/mL | MIC 90 (nanobacteria [1]; [6]): 250 µg/mL | antinanobacterial effect in the in vitro test (in words) (nanobacteria [1]): bacteriostatic effects at high antibiotic concentrations

O=C(O)CN(CCN(CC(=O)O)CC(=O)O)CC(=O)O [EDTA, ethylenediaminetetraacetic acid]
IC90 (nanobacteria [1]; 288 h, 90% inhibition, 12 day time point, read-out: MIC 90): 2500 µM | IC50 (nanobacteria [1]; 288 h, read-out: MIC 50): 300 µM | antinanobacterial effect in the in vitro test (in words) (nanobacteria [1]): antinanobacterial effects | effect on growth of nanobacteria (nanobacteria [2]): inhibts growth

Doxycycline
MIC 50 (nanobacteria [1]; 12 day time point): 50 µg/mL | MIC 90 (nanobacteria [1]; [6]): 80 µg/mL | antinanobacterial effect in the in vitro test (in words) (nanobacteria [1]): effective on inhibiting nanobacterial growth | stability under the test conditions (nanobacteria [3]): not stable

CN(C)[C@@H]1C(O)=C(C(N)=O)C(=O)[C@@]2(O)C(O)=C3C(=O)c4c(O)cccc4[C@@](C)(O)[C@H]3C[C@@H]12 [tetracycline HCl]
nanobacteria status of the patient (urine and serum samples) (nanobacteria [4]): nanobacteria negative

silver
biofilm formation on commercial stents (nanobacteria [5]): prevented
